In paper PMC11855827, “High-Throughput Screening of Five Compound Libraries for Anthelmintic Activity and Toxicity Leads to the Discovery of Two Flavonoid Compounds” (International Journal of Molecular Sciences, 2025):
Several values for one entry are separate records, joined by “and”; a condition that tells them apart may be missing. Equal entries are not always repeated. Where two headings read alike, the source gives them in different places.

Tested on: C. elegans
[1] = Table S2, C. elegans SS assay, 110 μM, 0 h, averages of 4 data points
[2] = Table S2, C. elegans SS assay, 110 μM, 24 h, averages of 4 data points

| Structure (SMILES) | Percentage of motility inhibition 0 h [1] [%] | Percentage of motility inhibition 24 h [2] | Percentage of motility inhibition 0 h (110 µM) [%] | Percentage of motility inhibition 24 h (110 µM) [%] |
| --- | --- | --- | --- | --- |
| C=C[C@H]1[C@H](O[C@@H]2O[C@H](CO)[C@@H](O)[C@H](O)[C@H]2O)OC=C(C(=O)OC)[C@H]1CC(=O)O [Secoxyloganin] | 0 | 3% |  |  |
| Clc1ccc(C(Cn2ccnc2)OCc2csc3c(Cl)cccc23)c(Cl)c1.O=[N+]([O-])O (stereo not shown) [Sertaconazole (nitrate)] | 40 | 6% |  |  |
| COC(=O)C1=CO[C@@H](O[C@@H]2O[C@H](CO)[C@@H](O)[C@H](O)[C@H]2O)[C@@H]2[C@@]3(C)O[C@H]3[C@@H](O)[C@]12O [Sesamoside] | 4 | 25% |  |  |
| C[C@]1(O)C[C@@H](O)[C@@H]2C(C(=O)O)=CO[C@@H](O[C@@H]3O[C@H](CO)[C@@H](O)[C@H](O)[C@H]3O)[C@@H]21 [Shanziside] | 1 | 4% |  |  |
| CC(C)=CCC[C@]1(C)CC[C@]2(C)[C@H]3CC[C@@]4(C)[C@@H](CCC(=O)[C@@H]4C)[C@]3(C)CC[C@@]2(C)C1 [Shionone] | 24 | 52% |  |  |
| C[C@H](CC[C@@H](O[C@@H]1O[C@H](CO[C@@H]2O[C@H](CO)[C@@H](O)[C@H](O)[C@H]2O)[C@@H](O)[C@H](O)[C@H]1O[C@@H]1O[C@H](CO)[C@@H](O)[C@H](O)[C@H]1O)C(C)(C)O)[C@H]1CC[C@@]2(C)[C@@H]3CC=C4[C@@H](CC[C@H](O[C@@H]5O[C@H](CO)[C@@H](O)[C@H](O)[C@H]5O)C4(C)C)[C@]3(C)[C@H](O)C[C@]12C [Siamenoside I] | 16 | 10% |  |  |
| COc1cc([C@@H]2Oc3c(O)cc([C@H]4Oc5cc(O)cc(O)c5C(=O)[C@@H]4O)cc3[C@H]2CO)ccc1O [Silychristin] | 33 | 2% |  |  |
| COc1cc(/C=C/C(=O)OCC[N+](C)(C)C)cc(OC)c1O.N#C[S-] [Sinapine (thiocyanate)] | 0 | 0% |  |  |
| COc1cc(/C=C/C(=O)OCC[N+](C)(C)C)cc(OC)c1O [Sinapine] |  |  | 0 | 1 |
| C=CC/C(=N\OS(=O)(=O)[O-])S[C@@H]1O[C@H](CO)[C@@H](O)[C@H](O)[C@H]1O.O.[K+] [Sinigrin (hydrate)] | 0 | 19% |  |  |
| C=CC/C(=N/OS(=O)(=O)[O-])S[C@@H]1OC(CO)[C@@H](O)C(O)C1O.[K+] (stereo partly shown) [Sinigrin] | 0 | 0% |  |  |
| COC1=C[C@@H]2[C@@H]3Cc4ccc(OC)c(O)c4[C@]2(CCN3C)CC1=O.Cl [Sinomenine hydrochloride] |  | 0% and 8% |  |  |
| COC1=C[C@@H]2[C@@H]3Cc4ccc(OC)c(O)c4[C@]2(CCN3C)CC1=O [Sinomenine] |  | 3% and 0% |  |  |
| C[C@H]1CC[C@@H]2N(C1)C[C@H]1[C@@H]3C[C@H]4[C@@H](CC(=O)[C@H]5C[C@@H](O)CC[C@@]54C)[C@@H]3CC[C@H]1[C@]2(C)O [Sipeimine] | 0 | 9% |  |  |
| CN[C@@H]1[C@@H](O)[C@@H](O[C@@H]2[C@@H](O)[C@H](O[C@H]3OC(CN)=CC[C@H]3N)[C@@H](N)C[C@H]2N)OC[C@]1(C)O.CN[C@@H]1[C@@H](O)[C@@H](O[C@@H]2[C@@H](O)[C@H](O[C@H]3OC(CN)=CC[C@H]3N)[C@@H](N)C[C@H]2N)OC[C@]1(C)O.O=S(=O)(O)O.O=S(=O)(O)O.O=S(=O)(O)O.O=S(=O)(O)O.O=S(=O)(O)O [Sisomicin (sulfate)] | 2 | 0% |  |  |
